Data from patent US20170081698A1, “SURVIVAL ASSAYS FOR METAKARYOTIC STEM CELLS” (priority 2014, published 2017).
Entries after “also recorded” stand apart in the source; their conditions may differ.

Key:
HT-29 cells [1] = experiment: Survival assay counting large colonies of HT-29 cells plated as single cells in T-flasks, with replating of surviving colonies; type: cell-based, human; conditions: for treatment level above which large colonies did not contain metakaryotic cells and did not grow further upon replating (mortal colonies): HT-29, concentration x duration of exposure; for nature of surviving colonies (metakaryotic cells, growth upon passaging): HT-29, appropriate concentrations and durations of exposure; for stem cell number, by fraction of treated cells giving large, growing immortal colonies: HT-29 and CAPAN-1 lines; for applicants' interpretation of selectivity (metakaryotic stem cells versus eukaryotic cells): HT-29 cell population; for number of immortal colonies: HT-29 cultures; for sensitivity of eukaryotic cells relative to metakaryotes to killing: cultures of cells derived from human tumors; for exposure period required to assure killing greater than 99% of metakaryotic stem cells: HT-29 or CAPAN-1 cell cultures, certain concentrations
Description: Large colonies visible to the eye and containing approximately 250 or more cells are enumerated manually or by an electronic colony counter adjusted to recognize colonies of these sizes.
As a practical tactic, the total number of large colonies (>250 cells) are counted and the number appearing on […] to untreated plates identifies the treatment as having killed either or both colonies arising from eukaryotic non-stem cells or from metakaryotic stem cells.
The assay, in one embodiment, involved plating single cells from an exponentially growing HT-29 cell culture in plastic T-flasks and counting the large colonies apparent five weeks after plating. Untreated control flasks provided the total number of immortal colonies and larger mortal colonies.

HT-29 cells [2] = experiment: Microscopic cytology of bell shaped metakaryotic nuclei in treated HT-29 cells (Hoechst, DAPI, Feulgen staining); type: cell-based, human; conditions: for aspect of bell shaped nuclei of metakaryotic colonies at the end of treatment: HT-29 colony assay flasks; for condensation of chromatin in bell shaped metakaryotic nuclei: HT-29 cultures
Capan-1 cells = experiment: Microscopic cytology of bell shaped metakaryotic nuclei in treated Capan-1 cells; conditions: Capan-1, equal to or greater than 10 micromolar for about one or more weeks
[3] = HT-29, 10 micromolar for 24 hours beginning 24 hours after seeding

## Cc1ccc(-c2cc(C(F)(F)F)nn2-c2ccc(S(N)(=O)=O)cc2)cc1 [Celecoxib]
HT-29 cells [1]
  treatment level above which large colonies did not contain metakaryotic cells and did not grow further upon replating (mortal colonies): higher than 10 micromolar weeks
HT-29 cells [1]; HT-29, two weeks beginning one day after transfer, ~2 to ~32 micromolar
  reduction of the total number of large colonies: about 10%

## CC(=O)Nc1ccc(O)cc1 [acetaminophen]
HT-29 cells [2]
  aspect of bell shaped nuclei of metakaryotic colonies at the end of treatment: did not display recognizable deformed pyknotic aspects
  condensation of chromatin in bell shaped metakaryotic nuclei: do not induce the condensation of chromatin
HT-29 cells [1]
  nature of surviving colonies (metakaryotic cells, growth upon passaging): did not contain discernable metakaryotic cells nor were they capable of continued growth upon passaging
  treatment level above which large colonies did not contain metakaryotic cells and did not grow further upon replating (mortal colonies): higher than 10 micromolar weeks
  stem cell number, by fraction of treated cells giving large, growing immortal colonies: reduction of stem cell number
  applicants' interpretation of selectivity (metakaryotic stem cells versus eukaryotic cells): exterminated the metakaryotic stem cells but were not cytotoxic to the eukaryotic non-stem cells
  number of immortal colonies: reduce the number of immortal colonies
HT-29 cells [1]; HT-29, two weeks beginning one day after transfer, ~5 to ~25 micromolar
  reduction of the total number of large colonies: about 10%
HT-29 cells [1]; HT-29, two weeks, concentrations higher than the range of the figure
  effect of higher concentrations on cells: killed all cells

## O=C(O)CCCc1ccc(N(CCCl)CCCl)cc1 [chlorambucil]
HT-29 cells [1]; HT-29, ~3000 cells per flask, one day exposure, greater than ~10 micromolar
  surviving large colonies: reduced the surviving large colonies monotonically to zero without displaying a plateau
HT-29 cells [1]
  sensitivity of eukaryotic cells relative to metakaryotes to killing: markedly more sensitive

## COc1cc2c(c(OC)c1OC)-c1ccc(OC)c(=O)cc1[C@@H](NC(C)=O)CC2 [colchicine]
HT-29 cells [1]
  sensitivity of eukaryotic cells relative to metakaryotes to killing: markedly more sensitive

## C[C@H]1c2cccc(O)c2C(=O)C2=C(O)[C@]3(O)C(=O)C(C(N)=O)=C(O)[C@@H](N(C)C)[C@@H]3[C@@H](O)[C@@H]21 [doxycycline]
HT-29 cells [1]
  treatment level above which large colonies did not contain metakaryotic cells and did not grow further upon replating (mortal colonies): higher than 4 micromolar weeks
HT-29 cells [1]; HT-29, two weeks beginning one day after transfer, zero to ~10 micromolar
  reduction of the total number of large colonies: about 8%

## CC(C)Cc1ccc(C(C)C(=O)O)cc1 (stereo not drawn) [ibuprofen]
HT-29 cells [2]
  condensation of chromatin in bell shaped metakaryotic nuclei: do not induce the condensation of chromatin
HT-29 cells [1]
  number of immortal colonies: reduce the number of immortal colonies

## CN(C)C(=N)N=C(N)N [metformin]
HT-29 cells [2]; 200-2000 micromolar-weeks
  nuclear chromatin condensation in metakaryotic versus eukaryotic cell nuclei: metakaryotic but not eukaryotic cell nuclei display nuclear chromatin condensation
HT-29 cells [2]
  aspect of bell shaped nuclei of metakaryotic colonies at the end of treatment: displayed recognizable deformed aspects
HT-29 cells [1]; HT-29, 100, 200 and 400 micromolar, five weeks
  further growth of remaining colonies upon trypsinized transfer: do not demonstrate further growth
HT-29 cells [1]
  nature of surviving colonies (metakaryotic cells, growth upon passaging): did not contain discernable metakaryotic cells nor were they capable of continued growth upon passaging
  treatment level above which large colonies did not contain metakaryotic cells and did not grow further upon replating (mortal colonies): > 200 micromolar weeks
  stem cell number, by fraction of treated cells giving large, growing immortal colonies: reduction of stem cell number
  exposure period required to assure killing greater than 99% of metakaryotic stem cells: not less than six
HT-29 cells [1]; HT-29, treatment range ~200 to 2000 micromolar weeks
  further decrease in total large colony count: No further significant decrease
HT-29 cells [1]; HT-29, ~1000 cells per flask, treatment levels from zero to ~100 micromolar weeks
  reduction of the total number of large colonies: about 10%

## COc1ccc2cc([C@H](C)C(=O)O)ccc2c1 [naproxen]
HT-29 cells [1]
  number of immortal colonies: reduce the number of immortal colonies

## O=c1[nH]c(=O)n([C@H]2C[C@H](O)[C@@H](CO)O2)cc1C(F)(F)F [trifluorothymidine]
HT-29 cells [1]; [3]
  effect on eukaryotic cells: kills nearly all eukaryotic cells
  effect on survival of metakaryotic cells: no detectable effect
HT-29 cells [1]; HT-29, 24 hour exposure, ~7 to 17 micromolar
  nature of surviving large colonies (metakaryotic cells, growth upon replating): immortal and displayed visible metakaryotic cells by the 64 cell colony forming stage; also recorded: contained metakaryotic cells and grew continuously upon replating; also recorded: contained metakaryotic cells upon microscopic inspection and demonstrated the ability to grow continuously upon passaging
HT-29 cells [1]
  applicants' interpretation of selectivity (metakaryotic stem cells versus eukaryotic cells): exterminated the eukaryotic cells in the HT-29 cell population studied but was not toxic to the metakaryotic stem cells
  sensitivity of eukaryotic cells relative to metakaryotes to killing: markedly more sensitive

## COc1ccc(CCN(C)CCCC(C#N)(c2ccc(OC)c(OC)c2)C(C)C)cc1OC (stereo not drawn) [verapamil]
Capan-1 cells
  nuclei of metakaryotic stem cells: pyknotic nuclei
HT-29 cells [2]; HT-29, about one or more weeks of treatment
  fluorescent structures in the cytoplasmic organelle of metakaryotic cells (dsDNA dyes Hoechst, DAPI): novel large bar structure; also recorded: bright blue fluorescent bars, crosses and more complex figures are observed
HT-29 cells [2]; HT-29, e.g. 10 micromolar for about one or more weeks
  chromatin in bell shaped nuclei after Feulgen staining: condensed into rope like structures
HT-29 cells [2]; HT-29 and CAPAN-1 cell cultures
  pyknotic bell shaped nuclei with condensed chromatin: dead (pyknotic) bell shaped metakaryotic cell nuclei; also recorded: pyknotic structures with bell shaped nuclei displaying grossly condensed chromatin structures
HT-29 cells [2]
  condensation of chromatin in bell shaped metakaryotic nuclei: observed
HT-29 cells [1]
  nature of surviving colonies (metakaryotic cells, growth upon passaging): did not contain discernable metakaryotic cells nor were they capable of continued growth upon passaging
  stem cell number, by fraction of treated cells giving large, growing immortal colonies: reduction of stem cell number
  exposure period required to assure killing greater than 99% of metakaryotic stem cells: not less than six

## CC[C@]1(O)C[C@@H]2CN(CCc3c([nH]c4ccccc34)[C@@](C(=O)OC)(c3cc4c(cc3OC)N(C)[C@H]3[C@@](O)(C(=O)OC)[C@H](OC(C)=O)[C@]5(CC)C=CCN6CC[C@]43[C@@H]65)C2)C1 [vinblastine]
HT-29 cells [1]
  sensitivity of eukaryotic cells relative to metakaryotes to killing: markedly more sensitive
